From PubChem BioAssay (NCI)
Several values for one entry are separate records, joined by “and”; a condition that tells them apart may be missing. Identical values can stand only once.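 Compound exposure: 48 hours, 5 concentrations, 96-well plates. GI50 is the concentration that inhibits growth by half. Definition used: TGI = concentration required for complete inhibition of growth.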

Key:
Experiment in all cases: NCI tumour cell line growth inhibition, 48 h
[1] = system: U251 CNS
[2] = system: UO-31 renal
[3] = system: SK-MEL-28 melanoma
[4] = system: ACHN renal
[5] = system: COLO 205 colon
[6] = system: SK-MEL-2 melanoma
[7] = system: SF-268 CNS
[8] = system: SNB-75 CNS
[9] = system: OVCAR-8 ovarian
[10] = system: MALME-3M melanoma

Row | Structure (SMILES) | GI50 [1] | TGI [1] | GI50 [2] | TGI [2] | GI50 [3] | TGI [3] | GI50 [4] | TGI [4] | GI50 [5] | TGI [5] | GI50 [6] | TGI [6] | GI50 [7] | TGI [7] | GI50 [8] | TGI [8] | GI50 [9] | TGI [9] | GI50 [10] | TGI [10]
1 | O=C(/C=C/c1ccccc1)n1c(-c2ccc(Cl)cc2)nc2ccccc21 | 1.6 µM | 3.22 µM | 1.1 µM | 3.55 µM | 1.49 µM | 3.22 µM | 1.18 µM | 10 µM | 1.41 µM | 2.78 µM | 2.1 µM | 4.35 µM | 2.1 µM | 6.14 µM | 1.44 µM | 3.77 µM | 0.752 µM | 10.3 µM | 1.63 µM | 5.74 µM
2 | C=C1CCC2C(C)(COC(=O)CC)C(OC(=O)CC)CCC2(C)C1C/C=C1/C(=O)OCC1OC(=O)CC (centres undefined) | 1.3 µM | 2.59 µM | 1.88 µM | 3.38 µM | 1.95 µM | 4.1 µM | 1.74 µM | 3.24 µM | 2.1 µM | 3.96 µM | 1.44 µM | 3.02 µM | 1.91 µM | 3.39 µM | 1.22 µM | 3.68 µM | 0.634 µM | 2.13 µM | 2.08 µM | 3.99 µM
3 | Cc1sc2c(c1C)C(c1ccc(Cl)cc1)=N[C@@H](CC(=O)OC(C)(C)C)c1nnc(C)n1-2 | 2.45 µM and 1.24 µM | 20.6 µM and 19 µM | 0.0634 µM and 0.0301 µM | 13.8 µM and 14.2 µM | 1.98 µM and 0.397 µM | 20.2 µM and 15.2 µM | 0.67 µM and 0.496 µM | 18.3 µM and 15.8 µM | 0.378 µM and 0.143 µM | 11.7 µM and 3.8 µM | 5.51 µM and 5.34 µM | 21.8 µM and 22.5 µM | 11.5 µM and 4.73 µM | 26.2 µM and 21.8 µM | 0.0325 µM and 0.025 µM | – | 0.875 µM and 0.62 µM | 26.8 µM and 20.5 µM | 11.4 µM and 4.84 µM | 26.4 µM and 22.1 µM
4 | CCOC(=O)CC1C(COC(=O)NC)OC(n2cnc3c(NC(=O)Nc4ccccc4)ncnc32)C1O[Si](C)(C)C(C)(C)C (centres undefined) | 7.57 µM | 32.3 µM | 5.7 µM | 55.4 µM | 7.77 µM | > 100 µM | 5.92 µM | > 100 µM | 7.7 µM | 20.2 µM | 13.2 µM | 57.3 µM | 5.06 µM | 33.8 µM | 10.3 µM | 50.2 µM | 10.3 µM | > 100 µM | 3.34 µM | 33.1 µM
5 | CC/C(CC(=O)CCC(=O)Nc1ccccc1[N+](=O)[O-])=N/NC(=O)C[n+]1ccccc1 | – | > 100 µM | – | > 100 µM | – | > 100 µM | – | > 100 µM | – | > 100 µM | – | > 100 µM | – | > 100 µM | – | > 100 µM | – | > 100 µM | – | > 100 µM
6 | COc1nc(N)nc2c1ncn2C1OC(CO)C(O)C1O (centres undefined) | > 5000 µM | > 5000 µM | > 5000 µM | > 5000 µM | 2280 µM | > 5000 µM | 723 µM | > 5000 µM | 520 µM | 2250 µM | 2570 µM | > 5000 µM | > 5000 µM | > 5000 µM | > 5000 µM | > 5000 µM | > 5000 µM | > 5000 µM | 1150 µM | > 5000 µM
7 | O=C1C=CC(=O)c2cc(Sc3ccccc3)c(=O)ccc21 | – | 38.5 µM | – | 30.5 µM | – | 35.1 µM | – | 23.3 µM | – | 24.9 µM | – | 28.7 µM | – | 44.4 µM | – | 31.2 µM | – | 33.9 µM | – | 36.4 µM
